Laboratory results as given in US9981956B2, “Small molecule inhibitors of fibrosis” (THE CALIFORNIA INSTITUTE FOR BIOMEDICAL RESEARCH, priority 2013, dated 2018).

system: fibroblast to myofibroblast transdifferentiation (primary human lung fibroblasts and primary rodent HSCs); assay: High content imaging and western based assay of fibroblast to myofibroblast transdifferentiation (α-SMA); assay type: cell-based; conditions: graded, TGF-β induced fibroblast to myofibroblast transdifferentiation
Source text: A high content imaging assay, based on α-SMA staining and cell morphological changes associated with fibroblast to myofibroblast transdifferentiation, was established using primary human lung fibroblasts and primary rodent HSCs. Conditions, involving serum starvation and subsequent TGF-β treatment, were identified that facilitate robust in vitro transdifferentiation in a miniaturized (384 well plate) format that is amenable to high throughput small molecule screening. A selective ALK-5 TGF-β1 receptor inhibitor (SB-431542) was used as a positive control. […] This assay was used to identify a hit compound (itraconazole) and was used to evaluate focused panels of itraconazole analogues generated from medicinal chemistry efforts.
The activity of Itraconazole and its analogues was confirmed by analyzing changes in gene expression of multiple genes associated with fibroblast to myofibroblast transdifferentiation using biochemical methods (i.e., Western blot and RT-PCR). These 4-day assays were used to evaluate sets of 6 compounds at a time in 4-point dose response fashion.
After 24 hour incubation, cells were treated with the indicated doses of itraconazole for 48 hours in the presence of 10 ng/mL of TGF-β1 in hepatic stellate medium. Following fixation and staining with an anti smooth muscle actin antibody, cell morphology was analyzed with a Cellomics cell insight imaging reader (FIG. 1 for representative images). Cells were analyzed for mean cellular area of a-SMA staining (FIG. 5a) or mean fluorescence intensity of SMA staining (FIG. 5b).
After 24 incubation, medium was changed to assay medium containing TGF-β1 (10 ng/mL) and simultaneously treated with itraconazole (10 μM), SB431542 (10 μM) or vehicle control (FIG. 6).

SMILES	EC50
CCC(C)n1ncn(-c2ccc(N3CCN(c4ccc(OC[C@H]5CO[C@@](Cn6cncn6)(c6ccc(F)cc6F)O5)cc4)CC3)cc2)c1=O (mixture of isomers) [Compound 7]	5 to 30 µM
CCC(C)n1ncn(-c2ccc(N3CCN(c4ccc(OC[C@@H]5CO[C@](Cn6nc7ccccc7n6)(c6ccc(Cl)cc6Cl)O5)cc4)CC3)cc2)c1=O (mixture of isomers) [Compound 17]	5 to 30 µM
CCC(C)n1ncn(-c2ccc(N3CCN(c4ccc(OC[C@@H]5CO[C@](Cn6nccn6)(c6ccc(Cl)cc6Cl)O5)cc4)CC3)cc2)c1=O (mixture of isomers) [Compound 18]	5 to 30 µM
CC[C@@H]([C@H](C)O)n1ncn(-c2ccc(N3CCN(c4ccc(OC[C@@H]5CO[C@@](Cn6cncn6)(c6ccc(F)cc6F)C5)cc4)CC3)cc2)c1=O (racemic) [POS, reference compound]	5 to 30 µM
CCC(C)n1cnn(-c2ccc(N3CCN(c4ccc(OC[C@@H]5CO[C@@](Cn6nccn6)(c6ccc(F)cc6F)O5)cc4)CC3)cc2)c1=O (stereo partly shown) [Compound 3]	5 to 30 µM
CCC(C)n1cnn(-c2ccc(N3CCN(c4ccc(OC[C@@H]5CO[C@@](Cn6ccc(C)n6)(c6ccc(F)cc6F)O5)cc4)CC3)cc2)c1=O (stereo partly shown) [Compound 4]	5 to 30 µM
CCC(C)n1cnn(-c2ccc(N3CCN(c4ccc(OC[C@@H]5CO[C@@](Cn6cnc(C)n6)(c6ccc(F)cc6F)O5)cc4)CC3)cc2)c1=O (stereo partly shown) [Compound 5]	5 to 30 µM
CCC(C)n1ncn(-c2ccc(N3CCN(c4ccc(OC[C@@H]5CO[C@@](Cn6cncn6)(c6ccc(F)cc6F)O5)cc4)CC3)cc2)c1=O (stereo partly shown) [Compound 6]	0.5 to 5 µM
CCC(C)n1cnn(-c2ccc(N3CCN(c4ccc(OC[C@@H]5CO[C@@](Cn6nnc7ccccc76)(c6ccc(F)cc6F)O5)cc4)CC3)cc2)c1=O (stereo partly shown) [Compound 8]	0.5 to 5 µM
CCC(C)n1ncn(-c2ccc(N3CCN(c4ccc(OC[C@@H]5CO[C@@](Cn6cnc(Br)n6)(c6ccc(F)cc6F)O5)cc4)CC3)cc2)c1=O (stereo partly shown) [Compound 9]	5 to 30 µM
CCC(C)n1ncn(-c2ccc(N3CCN(c4ccc(OC[C@@H]5CO[C@@](Cn6cnc(C(F)(F)F)n6)(c6ccc(F)cc6F)O5)cc4)CC3)cc2)c1=O (stereo partly shown) [Compound 10]	5 to 30 µM
CCC(C)n1ncn(-c2ccc(N3CCN(c4ccc(OC[C@@H]5CO[C@@](Cn6nc(Br)nc6Br)(c6ccc(F)cc6F)O5)cc4)CC3)cc2)c1=O (stereo partly shown) [Compound 11]	5 to 30 µM
CCC(C)n1cnn(-c2ccc(N3CCN(c4ccc(OC[C@@H]5CO[C@@](Cn6nc7ccccc7n6)(c6ccc(F)cc6F)O5)cc4)CC3)cc2)c1=O (stereo partly shown) [Compound 12]	5 to 30 µM
CC(C)n1ncn(-c2ccc(N3CCN(c4ccc(OC[C@@H]5CO[C@@](Cn6cncn6)(c6ccc(F)cc6F)O5)cc4)CC3)cc2)c1=O [Compound 13]	5 to 30 µM
CC(C)Cn1ncn(-c2ccc(N3CCN(c4ccc(OC[C@@H]5CO[C@@](Cn6cncn6)(c6ccc(F)cc6F)O5)cc4)CC3)cc2)c1=O [Compound 14]	5 to 30 µM
CCC(C)n1cnn(-c2ccc(N3CCN(c4ccc(OC[C@@H]5CO[C@@](Cn6nc7ccccc7n6)(c6ccc(Cl)cc6Cl)O5)cc4)CC3)cc2)c1=O (stereo partly shown) [Compound 16]	5 to 30 µM
CCC(C)n1ncn(-c2ccc(N3CCN(c4ccc(OC[C@@H]5CO[C@@](Cn6cnc7ccccc76)(c6ccc(Cl)cc6Cl)O5)cc4)CC3)cc2)c1=O (stereo partly shown) [Compound 20]	0.5 to 5 µM
CCC(C)n1ncn(-c2ccc(N3CCN(c4ccc(OC[C@@H]5CO[C@@](Cn6nccn6)(c6ccc(Cl)cc6Cl)O5)cc4)CC3)cn2)c1=O (stereo partly shown) [Compound 25]	5 to 30 µM
CC(O)C(C)n1ncn(-c2ccc(N3CCN(c4ccc(OC[C@@H]5CO[C@@](Cn6nccn6)(c6ccc(Cl)cc6Cl)O5)cc4)CC3)cc2)c1=O (stereo partly shown) [Compound 28]	0.5 to 5 µM
CC(O)C(C)n1ncn(-c2ccc(N3CCN(c4ccc(OC[C@@H]5CO[C@@](Cc6ccnnc6)(c6ccc(Cl)cc6Cl)O5)cc4)CC3)cc2)c1=O (stereo partly shown) [Compound 29]	< 0.5 µM
CCC(C)n1ncn(-c2ccc(N3CCN(c4ccc(OC[C@@H]5CO[C@@](Cn6nccn6)(c6cc(Cl)cc(Cl)c6)O5)cc4)CC3)cc2)c1=O (stereo partly shown) [Compound 31]	0.5 to 5 µM
CCC(C)n1ncn(-c2ccc(N3CCN(c4ccc(OC[C@@H]5CO[C@@](Cn6nccn6)(c6cccc(Cl)c6)O5)cc4)CC3)cc2)c1=O (stereo partly shown) [Compound 33]	0.5 to 5 µM
CCc1ccc([C@]2(Cn3nccn3)OC[C@@H](COc3ccc(N4CCN(c5ccc(-n6cnn(C(C)CC)c6=O)cc5)CC4)cc3)O2)cc1 (stereo partly shown) [Compound 34]	0.5 to 5 µM
CCC(C)n1ncn(-c2ccc(N3CCN(c4ccc(OC[C@@H]5CO[C@@](Cn6nccn6)(c6ccc(Br)cc6)O5)cc4)CC3)cc2)c1=O (stereo partly shown) [Compound 35]	0.5 to 5 µM
CCC(C)n1ncn(-c2ccc(N3CCN(c4ccc(OC[C@@H]5CO[C@@](Cn6nccn6)(c6ccc(C#N)cc6)O5)cc4)CC3)cc2)c1=O (stereo partly shown) [Compound 37]	0.5 to 5 µM

SMILES	EC50
CCC(C)n1ncn(-c2ccc(N3CCN(c4ccc(OC[C@@H]5CO[C@@](Cn6nccn6)(c6ccc(C(F)(F)F)cc6)O5)cc4)CC3)cc2)c1=O (stereo partly shown) [Compound 38]	0.5 to 5 µM
CCC(C)n1ncn(-c2ccc(N3CCN(c4ccc(OC[C@@H]5CO[C@@](Cn6nccn6)(c6ccc(OC)cc6)O5)cc4)CC3)cc2)c1=O (stereo partly shown) [Compound 39]	0.5 to 5 µM
CCC(C)n1ncn(-c2ccc(N3CCN(c4ccc(OC[C@@H]5CO[C@@](Cn6nccn6)(c6ccc(C)cc6)O5)cc4)CC3)cc2)c1=O (stereo partly shown) [Compound 40]	0.5 to 5 µM
CCC(C)n1ncn(-c2ccc(N3CCN(c4ccc(OC[C@@H]5CO[C@@](Cn6nccn6)(c6ccccc6C(F)(F)F)O5)cc4)CC3)cc2)c1=O (stereo partly shown) [Compound 43]	5 to 30 µM
CCC(C)n1ncn(-c2ccc(N3CCN(c4ccc(OC[C@@H]5CO[C@@](Cn6nccn6)(c6ccc(S(C)(=O)=O)cc6)O5)cc4)CC3)cc2)c1=O (stereo partly shown) [Compound 44]	5 to 30 µM
CCC(C)n1ncn(-c2ccc(N3CCN(c4ccc(OC[C@@H]5CO[C@@](Cn6nccn6)(c6ccccc6OC)O5)cc4)CC3)cc2)c1=O (stereo partly shown) [Compound 45]	5 to 30 µM
CCC(C)n1ncn(-c2ccc(N3CCN(c4ccc(OC[C@@H]5CO[C@@](Cn6nccn6)(c6ccc(Cl)cc6Cl)O5)c(C)c4)CC3)cc2)c1=O (stereo partly shown) [Compound 46]	5 to 30 µM
CCC(C)n1ncn(-c2ccc(N3CCN(c4ccc(OC[C@@H]5CO[C@@](Cn6nccn6)(c6ccc(Cl)cc6Cl)O5)c(OC)c4)CC3)cc2)c1=O (stereo partly shown) [Compound 47]	5 to 30 µM
CCC(C)n1ncn(-c2ccc(N3CCN(c4ccc(OC[C@@H]5CO[C@@](Cn6nccn6)(c6ccc(Cl)cc6Cl)O5)c(Cl)c4)CC3)cc2)c1=O (stereo partly shown) [Compound 48]	0.5 to 5 µM
CCC(C)n1ncn(-c2ccc(N3CCN(c4ccc(OC[C@@H]5CO[C@@](Cn6nccn6)(c6ccc(Cl)cc6Cl)O5)cc4C)CC3)cc2)c1=O (stereo partly shown) [Compound 50]	0.5 to 5 µM
CCC(C)n1ncn(-c2ccc(N3CCN(c4ccc(OC[C@@H]5CO[C@@](Cn6nccn6)(c6ccc(Cl)cc6Cl)O5)cc4OC)CC3)cc2)c1=O (stereo partly shown) [Compound 51]	0.5 to 5 µM
CCC(C)n1ncn(-c2ccc(N3CCN(c4ccc(OC[C@@H]5CO[C@@](Cn6nccn6)(c6ccc(Cl)cc6Cl)O5)cc4C#N)CC3)cc2)c1=O (stereo partly shown) [Compound 52]	0.5 to 5 µM
CCC(C)n1ncn(-c2ccc(N3CCN(c4ccc(OC[C@@H]5CO[C@@](Cn6nccn6)(c6ccc(Cl)cc6Cl)O5)cc4Cl)CC3)cc2)c1=O (stereo partly shown) [Compound 53]	0.5 to 5 µM
CCC(C)n1ncn(-c2ccc(N3CCN(c4ccc(OC[C@@H]5CO[C@@](Cn6nccn6)(c6ncccn6)O5)cc4)CC3)cc2)c1=O (stereo partly shown) [Compound 56]	5 to 30 µM
CCC(C)n1ncn(-c2ccc(N3CCN(c4ccc(OC[C@@H]5CO[C@@](Cn6nccn6)(c6cnccn6)O5)cc4)CC3)cc2)c1=O (stereo partly shown) [Compound 57]	5 to 30 µM
CCC(C)n1ncn(-c2ccc(N3CCN(c4ccc(OC[C@@H]5CO[C@@](Cn6nccn6)(C6CCCCC6)O5)cc4)CC3)cc2)c1=O (stereo partly shown) [Compound 58]	5 to 30 µM
CCC(C)n1ncn(-c2ccc(N3CCN(c4ccc(OC[C@@H]5CO[C@@](Cn6nccn6)(c6cccc7ccccc67)O5)cc4)CC3)cc2)c1=O (stereo partly shown) [Compound 63]	5 to 30 µM
CCC(C)n1ncn(-c2ccc(N3CCN(c4ccc(OC[C@@H]5CO[C@@](Cn6nccn6)(c6ccc(-c7ccccc7)cc6)O5)cc4)CC3)cc2)c1=O (stereo partly shown) [Compound 72]	5 to 30 µM
CCC(C)n1ncn(-c2ccc(N3CCN(c4ccc(OC[C@@H]5CO[C@@](Cn6nccn6)(c6ccccn6)O5)cc4)CC3)cc2)c1=O (stereo partly shown) [Compound 75]	5 to 30 µM
CCC(C)n1ncn(-c2ccc(N3CCN(c4ccc(OC[C@@H]5CO[C@@](Cn6nccn6)(c6nccs6)O5)cc4)CC3)cc2)c1=O (stereo partly shown) [Compound 78]	5 to 30 µM
CCc1cc(N2CCN(c3ccc(-n4cnn(C(C)CC)c4=O)cc3)CC2)ccc1OC[C@@H]1CO[C@@](Cn2nccn2)(c2ccc(Cl)cc2Cl)O1 (stereo partly shown) [Compound 80]	5 to 30 µM
CCc1cc(OC[C@@H]2CO[C@@](Cn3nccn3)(c3ccc(Cl)cc3Cl)O2)ccc1N1CCN(c2ccc(-n3cnn(C(C)CC)c3=O)cc2)CC1 (stereo partly shown) [Compound 81]	5 to 30 µM
CCC(C)n1ncn(-c2ccc(N3CCN(c4ccc(OC[C@@H]5CO[C@@](Cn6nccn6)(c6cccnc6)O5)cc4)CC3)cc2)c1=O (stereo partly shown) [Compound 82]	5 to 30 µM
CCC(C)n1ncn(-c2ccc(N3CCN(c4ccc(OC[C@@H]5CO[C@@](Cn6nccn6)(c6ccncc6)O5)cc4)CC3)cc2)c1=O (stereo partly shown) [Compound 83]	5 to 30 µM
